Assay [1] deals with phosphorylated 4E-BP1 Thr37/46 (p4E-BP1 Thr37/46), mTORC1 activity, PC3 cells. Briefly: mTOR target engagement assay, immunofluorescent cell-based, p4E-BP1 Thr37/46 readout (mTORC1 activity). The following applies: Homo sapiens, read-out: p4E-BP1 Thr37/46 IC50. The gist of the method:
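Cell-based immunofluorescence in PC3 cells: serially diluted compounds (0.25% DMSO, 5% FBS) applied for ninety minutes at 37° C before fixation and overnight 4° C staining of p4E-BP1 Thr37/46. Untreated DMSO wells set maximal phosphorylation; IC50 obtained by logistic fitting.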

For assay [2], the system named is phosphorylated AKT Ser473 (pAKT S473), mTORC2 activity, PC3 cells. As to the kind of experiment: mTOR target engagement assay, immunofluorescent cell-based, pAKT S473 readout (mTORC2 activity). The following applies: Homo sapiens. The gist of the method: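 After blocking, cells were stained overnight at 4 °C with anti-pAKT S473 antibody, then a fluorescent secondary; inhibition was read as reduced fluorescence intensity.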

[3] abbreviates: PC-3, PC3 cells, compound treatment ninety minutes at 37° C.

Like-named read-outs stand apart in the source and are kept apart here.

Drawing on patent US9227971B2, “Pyrazolo[1,5-a]pyrimidine compounds as mTOR inhibitors” (Merck Sharp & Dohme Corp., priority 2010, dated 2016), this text covers IC50 for 19 molecules.

For `CC(=O)c1c([C@@H]2C[C@H]3CC[C@@H](C2)N3C(=O)CO)nc2c(-c3ccc(C#CC4CC4)nc3)cnn2c1N` [Compound 8.61, 1-((1R,3s,5S)-3-(6-acetyl-7-amino-3-(6-(cyclopropylethynyl)pyridin-3-yl)pyrazolo[1,5-a]pyrimidin-5-yl)-8-azabicyclo[3.2.1]octan-8-yl)-2-hydroxyethanone], the IC50 in assay [1] (PC-3, PC3 cells) was 100 to 1000 nM; in assay [2] (PC-3, PC3 cells), 100 to 1000 nM.

`CC(=O)c1c([C@@H]2C[C@H]3CC[C@@H](C2)N3C(=O)CO)nc2c(-c3ccc(-c4nc[nH]n4)nc3)cnn2c1N` [Compound 1.1.102, 1-((1R,3s,5S)-3-(3-(6-(1H-1,2,4-triazol-3-yl)pyridin-3-yl)-6-acetyl-7-aminopyrazolo[1,5-a]pyrimidin-5-yl)-8-azabicyclo[3.2.1]octan-8-yl)-2-hydroxyethanone]: the IC50 in assay [1] (setting [3]) and in assay [2] (setting [3]) was 1 to 100 nM each time.

With `CC(=O)c1c([C@@H]2C[C@H]3CC[C@@H](C2)N3C(=O)c2nnc[nH]2)nc2c(-c3ccc([C@@H](C)O)nc3)cnn2c1N` [Compound 7.33, 1-(5-((1R,3s,5S)-8-(4H-1,2,4-triazole-3-carbonyl)-8-azabicyclo[3.2.1]octan-3-yl)-7-amino-3-(6-((R)-1-hydroxyethyl)pyridin-3-yl)pyrazolo[1,5-a]pyrimidin-6-yl)ethanone], the IC50 in assay [1] (PC-3, Table 7-4, PC3 cells) was in the range of 100 to 1000 nM; in assay [2] (PC-3, Table 7-4, PC3 cells) it was 100 to 1000 nM.

For the molecule `COc1ccc(-c2ccc(-c3cnn4c(N)c(C(C)=O)c([C@@H]5C[C@H]6CC[C@@H](C5)N6C(=O)c5nnc[nH]5)nc34)cn2)cc1F` [Compound 1.1.57, 1-(5-((1R,3s,5S)-8-(4H-1,2,4-triazole-3-carbonyl)-8-azabicyclo[3.2.1]octan-3-yl)-7-amino-3-(6-(3-fluoro-4-methoxyphenyl)pyridin-3-yl)pyrazolo[1,5-a]pyrimidin-6-yl)ethanone], the IC50 in assay [1] (setting [3]) and in assay [2] (setting [3]) was 1 to 100 nM throughout.

For the molecule `Nc1c(C2CC2)c([C@@H]2C[C@H]3CC[C@@H](C2)N3C(=O)c2nnc[nH]2)nc2c(-c3ccc(-c4cccc(F)c4)nc3)cnn12` [Compound 4.21, ((1R,3s,5S)-3-(7-amino-6-cyclopropyl-3-(6-(3-fluorophenyl)pyridin-3-yl)pyrazolo[1,5-a]pyrimidin-5-yl)-8-azabicyclo[3.2.1]octan-8-yl)(4H-1,2,4-triazol-3-yl)methanone], the IC50 in assay [1] (setting [3]) and in assay [2] (setting [3]) was 1 to 100 nM throughout.

As for `CC(=O)c1c([C@@H]2C[C@H]3CC[C@@H](C2)N3C(=O)c2cc(N)n[nH]2)nc2c(-c3ccc(-n4cc(C)cn4)nc3)cnn2c1N` [Compound 1.1.132, 1-(7-amino-5-((1R,3s,5S)-8-(3-amino-1H-pyrazole-5-carbonyl)-8-azabicyclo[3.2.1]octan-3-yl)-3-(6-(4-methyl-1H-pyrazol-1-yl)pyridin-3-yl)pyrazolo[1,5-a]pyrimidin-6-yl)ethanone], the IC50 in assay [1] (setting [3]) and in assay [2] (setting [3]) was 1 to 100 nM each time.

On to `CS(=O)(=O)c1c([C@@H]2C[C@H]3CC[C@@H](C2)N3C(N)=O)nc2c(-c3ccc(-c4ccc(F)cc4F)nc3)cnn2c1N` [Compound 3.125, (1R,3s,5S)-3-(7-amino-3-(6-(2,4-difluorophenyl)pyridin-3-yl)-6-(methylsulfonyl)pyrazolo[1,5-a]pyrimidin-5-yl)-8-azabicyclo[3.2.1]octane-8-carboxamide], for which the IC50 in assay [1] (PC-3, Table 3-1, PC3 cells) was in the range of 100 to 1000 nM; in assay [2] (PC-3, Table 3-1, PC3 cells), 1 to 100 nM.

Consider `CC(=O)c1c([C@@H]2C[C@H]3CC[C@@H](C2)N3C(=O)c2nnc[nH]2)nc2c(-c3ccc(C#CC4CC4)nc3)cnn2c1N` [Compound 8.60, 1-(5-((1R,3s,5S)-8-(4H-1,2,4-triazole-3-carbonyl)-8-azabicyclo[3.2.1]octan-3-yl)-7-amino-3-(6-(cyclopropylethynyl)pyridin-3-yl)pyrazolo[1,5-a]pyrimidin-6-yl)ethanone], for which the IC50 in assay [1] (PC-3, PC3 cells) lay in the range of 100 to 1000 nM; in assay [2] (PC-3, PC3 cells) it was 100 to 1000 nM.

In the case of `COc1nnc(C(=O)N2C3CCC2CC(c2nc4c(-c5ccc(-c6ccccc6)nc5)cnn4c(N)c2C2CC2)C3)[nH]1` [Compound 8.103, ((1R,3s,5S)-3-(7-amino-6-cyclopropyl-3-(6-phenylpyridin-3-yl)pyrazolo[1,5-a]pyrimidin-5-yl)-8-azabicyclo[3.2.1]octan-8-yl)(5-methoxy-4H-1,2,4-triazol-3-yl)methanone], the IC50 was in the range of 100 to 1000 nM in assay [1] (PC-3, PC3 cells) and 100 to 1000 nM in assay [2] (PC-3, PC3 cells).

Regarding `COc1ccc(-c2ccc(-c3cnn4c(N)c(S(C)(=O)=O)c([C@@H]5C[C@H]6CC[C@@H](C5)N6C(=O)c5nnc[nH]5)nc34)cn2)cc1OC` [Compound 3.39, ((1R,3s,5S)-3-(7-amino-3-(6-(3,4-dimethoxyphenyl)pyridin-3-yl)-6-(methylsulfonyl)pyrazolo[1,5-a]pyrimidin-5-yl)-8-azabicyclo[3.2.1]octan-8-yl)(4H-1,2,4-triazol-3-yl)methanone], the IC50 in assay [1] (PC-3, Table 3-1, PC3 cells) lay in the range of 100 to 1000 nM; in assay [2] (PC-3, Table 3-1, PC3 cells), 100 to 1000 nM.

Take `COCCOCc1ccc(-c2cnn3c(N)c(S(C)(=O)=O)c([C@@H]4C[C@H]5CC[C@@H](C4)N5C(=O)c4nnc[nH]4)nc23)cn1` [Compound 7.32, ((1R,3s,5S)-3-(7-amino-3-(6-((2-methoxyethoxy)methyl)pyridin-3-yl)-6-(methylsulfonyl)pyrazolo [1,5-a]pyrimidin-5-yl)-8-azabicyclo[3.2.1]octan-8-yl)(4H-1,2,4-triazol-3-yl)methanone]: the IC50 in assay [1] (setting [3]) is 1000 to 10000 nM; in assay [2] (setting [3]) it was greater than 10000 nM.

For the molecule `CC(=O)Nc1ccc(-c2cnn3c(N)c(C(C)=O)c([C@@H]4C[C@H]5CC[C@@H](C4)N5C(=O)c4ncn[nH]4)nc23)cn1` [Compound 8.76, N-(5-(5-((1R,3s,5S)-8-(1H-1,2,4-triazole-5-carbonyl)-8-azabicyclo[3.2.1]octan-3-yl)-6-acetyl-7-aminopyrazolo[1,5-a]pyrimidin-3-yl)pyridin-2-yl)acetamide], the IC50 in assay [1] (PC-3, PC3 cells) was 1 to 100 nM; in assay [2] (PC-3, PC3 cells), 1 to 100 nM.

With `CC(=O)c1c(C2CC3COCC(C2)N3C(=O)CO)nc2c(-c3ccc(-c4ccccc4)nc3)cnn2c1N` (centres unmarked) [Compound 8.28, 1-(7-(6-acetyl-7-amino-3-(6-phenylpyridin-3-yl)pyrazolo[1,5-a]pyrimidin-5-yl)-3-oxa-9-azabicyclo[3.3.1]nonan-9-yl)-2-hydroxyethanone], the IC50 in assay [1] (PC-3, PC3 cells) fell in the range of 100 to 1000 nM; in assay [2] (PC-3, PC3 cells) it was 100 to 1000 nM.

For the molecule `CC(=O)c1c(C2CC3CS(=O)(=O)CC(C2)N3C(=O)c2nc[nH]n2)nc2c(-c3ccc(-c4ccccc4)nc3)cnn2c1N` (stereo not drawn) [Compound 8.38, endo/exo-7-[6-acetyl-7-amino-3-(6-phenyl-3-pyridinyl)pyrazolo[1,5-a]pyrimidin-5-yl]-9-(4h-1,2,4-triazol-3-ylcarbonyl)-3-thia-9-azabicyclo[3.3.1]nonane, 3,3-dioxide], the IC50 was 100 to 1000 nM in assay [1] (PC-3, PC3 cells) and 100 to 1000 nM in assay [2] (PC-3, PC3 cells).

As for `CC(=O)c1c([C@@H]2C[C@H]3CC[C@@H](C2)N3C(=O)c2nnc(O)[nH]2)nc2c(-c3ccc(-c4ccccc4)nc3)cnn2c1N` [Compound 1.1.40, 1-(7-amino-5-((1R,3s,5S)-8-(5-hydroxy-4H-1,2,4-triazole-3-carbonyl)-8-azabicyclo[3.2.1]octan-3-yl)-3-(6-phenylpyridin-3-yl)pyrazolo[1,5-a]pyrimidin-6-yl)ethanone], the IC50 in assay [1] (setting [3]) and in assay [2] (setting [3]) was 100 to 1000 nM each time.

For `CC(=O)c1c([C@@H]2C[C@H]3CC[C@@H](C2)N3C(=O)CO)nc2c(-c3cnc(C(C)(C)O)c(C)c3)cnn2c1N` [Compound 7.23, 1-((1R,3s,5S)-3-(6-acetyl-7-amino-3-(6-(2-hydroxypropan-2-yl)-5-methylpyridin-3-yl)pyrazolo[1,5-a]pyrimidin-5-yl)-8-azabicyclo[3.2.1]octan-8-yl)-2-hydroxyethanone], the IC50 in assay [1] (setting [3]) and in assay [2] (setting [3]) was 100 to 1000 nM throughout.

With `CS(=O)(=O)c1c([C@@H]2C[C@H]3CC[C@@H](C2)N3C(=O)c2nnc[nH]2)nc2c(-c3ccc(-c4ccc(F)cc4)nc3)cnn2c1N` [Compound 3.105, ((1R,3s,5S)-3-(7-amino-3-(6-(4-fluorophenyl)pyridin-3-yl)-6-(methylsulfonyl)pyrazolo[1,5-a]pyrimidin-5-yl)-8-azabicyclo[3.2.1]octan-8-yl)(4H-1,2,4-triazol-3-yl)methanone], the IC50 lay within 1 to 100 nM in assay [1] (PC-3, Table 3-1, PC3 cells) and 1 to 100 nM in assay [2] (PC-3, Table 3-1, PC3 cells).

Take `CC(=O)c1c([C@@H]2C[C@H]3CC[C@@H](C2)N3C(=O)c2cc(N)n[nH]2)nc2c(-c3ccc(-c4cnn(C)c4)nc3)cnn2c1N` [Compound 1.1.176, 1-(7-amino-5-((1R,3s,5S)-8-(3-amino-1H-pyrazole-5-carbonyl)-8-azabicyclo[3.2.1]octan-3-yl)-3-(6-(1-methyl-1H-pyrazol-4-yl)pyridin-3-yl)pyrazolo[1,5-a]pyrimidin-6-yl)ethanone]: the IC50 in assay [1] (setting [3]) and in assay [2] (setting [3]) was 100 to 1000 nM throughout.

With `CC(=O)c1c([C@@H]2C[C@H]3CC[C@@H](C2)N3C(=O)c2nnc[nH]2)nc2c(-c3cncc(CO)c3)cnn2c1N` [Compound 1.1.184, 1-(5-((1R,3s,5S)-8-(4H-1,2,4-triazole-3-carbonyl)-8-azabicyclo[3.2.1]octan-3-yl)-7-amino-3-(5-(hydroxymethyl)pyridin-3-yl)pyrazolo[1,5-a]pyrimidin-6-yl)ethanone], the IC50 in assay [1] (setting [3]) and in assay [2] (setting [3]) was 100 to 1000 nM in each case.
